Tests used:
IKZF1 and IKZF3 [1] = assay: IKZF1 and IKZF3 level by immunoblotting in K562 cells; assay type: cell-based, human; details: K562, 48 h, 3 (1 µM), 5 (1 µM), 6 (1 µM)
Protocol: (§1) K562 or MOLT4 cells were seeded on 6-well plate (2 × 10^6 cells/well) in a RPMI 1640 medium containing 10% FBS. MOLT4 cells were exposed to 1% DMSO (vehicle control), test compounds 6 (2 µM), 3 (5 µM), 5 (10 µM). Similarly, K562 cells were exposed to 1% DMSO, test compounds 6 (1 µM), 3 (1 µM), 5 (1 µM) for 48 h. Cells treated with 100 µM thalidomide or 10 µM lenalidomide served as positive controls. After incubation, cells were centrifuged (600 rpm, 6 min, 24 °C), washed once with PBS and lysed in 20 mM Tris (pH 7.2) containing 1% Triton X-100 supplemented with Complete® protease inhibitors cocktail (Roche). The levels of IKZF1 and IKZF3 were assessed by immunoblotting (IB).
(§2) Cells were lysed in TBS buffer containing 1% Triton X-100 and Complete® protease inhibitor cocktail (Roche) for 15 min on ice with occasional vortexing. Insoluble material was centrifuged (12,000 rpm, 15 min, 4 °C) and supernatants were collected. Total protein concentration was measured with DC Protein Assay (Bio-Rad, Hercules, CA, USA). Cell lysates containing 30 µg of total protein were mixed with Laemli buffer supplemented with SDS and β-mercaptoethanol, denatured (10 min, 95 °C) and subjected to sodium dodecyl sulfate polyacrylamide gel electrophoresis (SDS-PAGE) electrophoresis (4% stacking and 10% resolving gels). Resolved proteins were electrotransferred (semi-dry, 90 min, 1.5 mA/cm^2) to a 0.45 µm nitrocellulose membrane (Thermo Scientific, Waltham, MA, USA). Membranes were blocked for 2 hours in TBST buffer (20 mM Tris-HCl pH 7.5, 0.9% NaCl, 0.1% Tween 20) containing 5% BSA (BioShop, Burlington, ON, Canada) and probed with primary antibodies (overnight at 4 °C) diluted in TBST buffer with 0.5% BSA. Tubulin served as a loading control for IB experiments. Anti IKZF3 (rabbit monoclonal, dilution 1:500), anti IKZF1 (rabbit polyclonal, dilution 1:500) were from Abcam. Anti IRF4 (rabbit polyclonal, dilution 1:500) were from Cell Signaling Technology. […] Protein bands intensities were analysed using Image Quant (version 5.0, GE Healthcare Life Sciences, Pittsburgh, PA, USA).

IKZF1 and IKZF3 [2] = assay: IKZF1 and IKZF3 level by immunoblotting in MOLT-4 cells; assay type: cell-based, human; details: MOLT-4, 48 h, 3 (5 µM), 5 (10 µM), 6 (2 µM)
Protocol: as §1, §2

K562 cells = details: 48 h, MTT, mean ± SD; cited from earlier work
MOLT-4 cells = assay: MTT cytotoxicity assay, MOLT-4; assay type: cell-based; details: Homo sapiens, 48 h, mean ± SD
Protocol: Human umbilical vein endothelial cells (purchased from Life Technologies, Carlsbad, CA, USA) were cultured according to the manufacturer’s instructions in Medium 200 supplemented with Low Serum Growth Supplement. 1 × 10^4 cells were seeded on each well on a 96-well plate (Nunc, Roskilde, Denmark). The HeLa (human cervix carcinoma, cat. #93021013), CFPAC (human pancreatic adenocarcinoma, cat. #91112501), K562 (chronic myelogenous leukemia, cat. #89121407), HL-60 (acute myelogenous leukemia, cat. #98070106), and MOLT-4 (Human acute T lymphoblastic leukemia, cat. #85011413) cells were purchased from European Collection of Authenticated Cell Cultures (ECACC). They were cultured in an RPMI 1640 medium supplemented with antibiotics (streptomycin, penicillin) and 10% fetal calf serum (20% for HL60), in a 5% CO2-95% air atmosphere. 7 × 10^3 cells were seeded on each well on a 96-well plate (Nunc). 24 hours later the cells were exposed to the test compounds. The aliquots of stock solutions of the test compounds (freshly prepared in DMSO) were added to the cell cultures to yield final concentrations of 1, 10^−1, 10^−2, 10^−3, 10^−4, and 10^−5 mM. The concentration of DMSO in the cell culture medium was 1%. The IC50 value (the concentration of a test compound required to reduce the cell survival fraction to 50% of the control) was calculated from a dose-response curve and used as a measure of cellular sensitivity to a given treatment. The IC50 values are given as means (± standard deviation (SD)) from 2 independent experiments with 4 technical replicates. The cytotoxicity of all compounds was determined by the MTT (3-(4,5-dimethylthiazol-2-yl)-2,5-diphenyltetrazolium bromide) assay (Sigma, St. Louis, MO, USA). Briefly, after 24 h or 48 h of incubation with a given compound, the cells were treated with the MTT reagent and incubation was continued for 2 h. MTT-formazan crystals were dissolved in 20% SDS and 50% DMF at pH 4.7 and VIS light absorption was measured at 570 and 650 nm on a microplate reader FLUOstar Omega (BMG Labtech, Offenburg, Germany). As a control (100% viability), cells grown in the presence of 1% DMSO were used.

HL-60 cells = details: 48 h, MTT, mean ± SD; cited from earlier work
HeLa cells = details: 48 h, MTT, mean ± SD; cited from earlier work

SMILES | level of IKZF1 and IKZF3 (immunoblotting) (IKZF1 and IKZF3 [1]) | level of IKZF1 and IKZF3 (immunoblotting) (IKZF1 and IKZF3 [2]) | IC50 (K562 cells) | IC50 (MOLT-4 cells) | IC50 (HL-60 cells) | IC50 (HeLa cells)
CCC12C(=O)C(CC)(C(c3ccccc3)=C1c1ccccc1)C1C(=O)N(CCN3CCCCC3)C(=O)C12 (stereo not drawn) [Compound 3] | modest reduction | modest reduction | 2 ± 0.31 µM | 9 ± 0.6 µM | > 100 µM | > 100 µM
CCC12C(=O)C(CC)(C(c3ccccc3)=C1c1ccccc1)C1C(=O)N(CC(O)CNC(C)C)C(=O)C12 (stereo not drawn) [Compound 5] | significant diminution | significant diminution | 1 ± 0.05 µM | 20 ± 2.3 µM | 2 ± 0.05 µM | > 100 µM
CN(C)CCN1C(=O)C2C(C1=O)C1(c3ccccc3)CC2(c2ccccc2)C(c2ccccc2)=C1c1ccccc1 (stereo not drawn) [Compound 6] | significant diminution | significant diminution | 1 ± 0.3 µM | 4 ± 0.2 µM | 5 ± 0.24 µM | 1 ± 0.2 µM
